Patent US8012975B2, “Antitumoral analogs of ET-743” (Pharma Mar, S.A., priority 2000, dated 2011)
pIC50: −log10 of the molar value. Like-named read-outs stand apart in the source and are kept apart here.

Experiments:
[1] = test system: A549; experiment: Cytotoxic activity (M) panel, NSCL A549; details: Homo sapiens, A549, read-out: CYTOTOXIC ACTIVITY (M) A549
[2] = test system: HT-29; experiment: Cytotoxic activity (M) panel, Colon HT-29; details: Homo sapiens, HT-29, read-out: CYTOTOXIC ACTIVITY (M) HT-29
[3] = test system: 786-O; experiment: Cytotoxic activity (M) panel, Renal 786-O; details: Homo sapiens, 786-0, read-out: CYTOTOXIC ACTIVITY (M) 786-O
[4] = test system: 5637; experiment: Cytotoxic activity (M) panel, Bladder 5637; details: read-out: CYTOTOXIC ACTIVITY (M) 5637
[5] = test system: PC3; experiment: Cytotoxic activity (M) panel, Prostate PC3; details: Homo sapiens, PC-3, read-out: CYTOTOXIC ACTIVITY (M) PC3
[6] = test system: FADU; experiment: Cytotoxic activity (M) panel, Pharnynx FADU; details: Homo sapiens, read-out: CYTOTOXIC ACTIVITY (M) FADU
[7] = test system: Hs746t; experiment: Cytotoxic activity (M) panel, Gastric Hs746t; details: Homo sapiens, read-out: CYTOTOXIC ACTIVITY (M) Hs746t
[8] = test system: SK-HEP-1; experiment: Cytotoxic activity (M) panel, Liver SK-HEP-1; details: Homo sapiens, SK-HEP1, read-out: CYTOTOXIC ACTIVITY (M) SK-HEP-1
[9] = test system: PANC-1; experiment: Cytotoxic activity (M) panel, Pancreas PANC-1; details: Homo sapiens, PANC-1, read-out: CYTOTOXIC ACTIVITY (M) PANC-1
[10] = test system: MEL-28; experiment: Cytotoxic activity (M) panel, Melanoma Mel-28; details: Homo sapiens, SK-MEL-28, read-out: CYTOTOXIC ACTIVITY (M) Mel-28
[11] = test system: CHSA; experiment: Cytotoxic activity (M) panel, Chondrosarcoma CHSA; details: read-out: CYTOTOXIC ACTIVITY (M) CHSA
[12] = test system: OSA-FH; experiment: Cytotoxic activity (M) panel, Osteosarcoma OSA-FH; details: read-out: CYTOTOXIC ACTIVITY (M) OSA-FH
[13] = test system: HL60; details: human
[14] = test system: Molt 3
[15] = test system: Hut 78; details: human
[16] = test system: MC116; details: human
[17] = test system: RAMOS
[18] = test system: K562; experiment: cells; details: Homo sapiens, K562, read-out: CYTOTOXIC ACTIVITY (M) K562
[19] = test system: H9; experiment: cells; details: Homo sapiens, H9, read-out: CYTOTOXIC ACTIVITY (M) H9, leukemias & lymphomas, Lymphoma T-cell, line H9
[20] = test system: H9
[21] = test system: HL60; experiment: cells; details: Homo sapiens, HL-60, read-out: CYTOTOXIC ACTIVITY (M) HL60, leukemias & lymphomas, ALL Promyelocytic leukemia, line HL60
[22] = test system: RAMOS; experiment: cells; details: Homo sapiens, read-out: CYTOTOXIC ACTIVITY (M) RAMOS, leukemias & lymphomas, Lymphoma Burkitts B celll, line RAMOS
[23] = test system: Molt 3; experiment: Cytotoxic activity (M) panel, Acute lymphoblastic Molt 3; details: Homo sapiens, MOLT-3, read-out: CYTOTOXIC ACTIVITY (M) Molt 3, leukemias & lymphomas, ALL Acute lymphoblastic, line Molt 3
[24] = test system: MC116; experiment: Cytotoxic activity (M) panel, Lymphoma undifferentiated MC116; details: Homo sapiens, MC116, read-out: CYTOTOXIC ACTIVITY (M) MC116, leukemias & lymphomas, Lymphoma undifferentiated, line MC116
[25] = test system: Y-79; experiment: Cytotoxic activity (M) panel, Retinoblastoma Y-79; details: Homo sapiens, Y79, read-out: CYTOTOXIC ACTIVITY (M) Y-79
[26] = test system: SW-694; experiment: Cytotoxic activity (M) panel, Fibrosarcoma SW-694; details: read-out: CYTOTOXIC ACTIVITY (M) SW-694
[27] = test system: MX-1; experiment: Cytotoxic activity (M) panel, Breast MX-1; details: Homo sapiens, MX1, read-out: CYTOTOXIC ACTIVITY (M) MX-1
[28] = test system: SK-OV-3; experiment: Cytotoxic activity (M) panel, Ovary SK-OV-3; details: Homo sapiens, SK-OV-3, read-out: CYTOTOXIC ACTIVITY (M) SK-OV-3
[29] = test system: LNCAP; experiment: Cytotoxic activity (M) panel, Prostate LNCAP; details: Homo sapiens, read-out: CYTOTOXIC ACTIVITY (M) LNCAP
[30] = test system: DU-145; experiment: Cytotoxic activity (M) panel, Prostate DU-145; details: Homo sapiens, DU-145, read-out: CYTOTOXIC ACTIVITY (M) DU-145
[31] = test system: U-937; experiment: Cytotoxic activity (M) panel, Lymphoma Histiocytic U-937; details: Homo sapiens, U-937, read-out: CYTOTOXIC ACTIVITY (M) U-937
[32] = test system: Hut 78; experiment: Cytotoxic activity (M) panel, Lymphoma Cutaneus T cell Hut 78; details: Homo sapiens, HuT78, read-out: CYTOTOXIC ACTIVITY (M) Hut 78, leukemias & lymphomas, Lymphoma Cutaneus T cell, line Hut 78
[33] = test system: NCI-H187
[34] = test system: NCI-H187; experiment: Cytotoxic activity (M) panel, SCL NCI-H187; details: Homo sapiens, NCI-H187, read-out: CYTOTOXIC ACTIVITY (M) NCI-H187

| Compound | IC50 [1] | IC50 [2] | IC50 [3] | IC50 [4] | IC50 [5] | IC50 [6] | IC50 [7] | IC50 [8] | IC50 [9] | IC50 [10] | IC50 [11] | IC50 [12] | IC50 [18] | IC50 [19] | IC50 [21] | IC50 [22] | IC50 [23] | IC50 [25] | IC50 [28] | IC50 [29] | also measured |
| --- | --- | --- | --- | --- | --- | --- | --- | --- | --- | --- | --- | --- | --- | --- | --- | --- | --- | --- | --- | --- | --- |
| CCCCCC(=O)NC[C@H]1c2c(c(OC(C)=O)c(C)c3c2OCO3)CC2[C@H]3c4c(cc(C)c(OC)c4O)C[C@@H]([C@H](O)N21)N3C (some centres unmarked) [drawing 226] | 9.41e-09 M | 8.97e-09 M | 1.72e-09 M | 2.84e-10 M | 9.32e-10 M | 1.39e-08 M | 9.19e-09 M | 1.08e-09 M | 1e-09 M | 1.15e-09 M | 2.1e-09 M | 1.3e-09 M |  |  |  |  |  |  |  |  |  |
| COc1c(C)cc2c(c1O)[C@@H]1C3Cc4c(OC(C)=O)c(C)c5c(c4[C@H](COC(=O)/C=C/c4ccccc4)N3[C@@H](O)[C@H](C2)N1C)OCO5 (some centres unmarked) [drawing 238] |  |  |  |  |  |  |  |  |  |  |  |  | 6.13e-08 M | 1.91e-08 M |  |  |  |  |  |  | pIC50 [13]: 7.87; pIC50 ([14]; human): 8.61; pIC50 [15]: 8.14; pIC50 [16]: 8.20; pIC50 ([17]; human): 9.15 |
| CCC(=O)N[C@@H](C)C(=O)NC[C@H]1c2c(c(OC(C)=O)c(C)c3c2OCO3)CC2[C@H]3c4c(cc(C)c(OC)c4O)C[C@@H]([C@H](O)N21)N3C (some centres unmarked) [drawing 232] |  |  |  |  |  |  |  |  |  |  |  |  | 1.18e-08 M |  | 7.36e-09 M | 5.01e-09 M | 9.86e-10 M |  |  |  | CYTOTOXIC ACTIVITY (M) H9 [20]: 2.43 to 08 M; IC50 [24]: 1.49e-09 M |
| COc1c(C)cc2c(c1O)[C@@H]1C3Cc4c(OC(C)=O)c(C)c5c(c4[C@H](COC(=O)CCc4ccccc4)N3[C@@H](O)[C@H](C2)N1C)OCO5 (some centres unmarked) [drawing 235] | 8.22e-06 M | 8.99e-09 M | 9.23e-10 M | 7.88e-10 M | 7.71e-10 M | 5.4e-11 M | 2.95e-08 M | 1.29e-09 M | 5.68e-10 M | 2.23e-08 M | 1.55e-05 M | 1.29e-09 M |  |  |  |  |  | 1.03e-08 M |  |  | IC50 [26]: 8.53e-06 M |
| COc1c(C)cc2c(c1O)[C@@H]1C3Cc4c(OC(C)=O)c(C)c5c(c4[C@H](CNC(=O)/C=C/c4cccc(C(F)(F)F)c4)N3[C@@H](O)[C@H](C2)N1C)OCO5 (some centres unmarked) [drawing 211] | 3.25e-09 M | 7.84e-10 M | 6.58e-12 M | 6.02e-10 M | 6.65e-09 M | 5.41e-11 M | 7.9e-12 M | 1.79e-12 M | 7.22e-11 M | 2.6e-10 M | 3.24e-10 M |  |  |  |  |  |  |  | 4.39e-11 M | 5.45e-10 M | IC50 [27]: 1.65e-06 M; IC50 [30]: 5.73e-10 M; IC50 [26]: 9.91e-10 M |
| COc1c(C)cc2c(c1O)[C@@H]1C3Cc4c(OC(C)=O)c(C)c5c(c4[C@H](CNC(=O)[C@H](C)NC(=O)CCc4ccccc4)N3[C@@H](O)[C@H](C2)N1C)OCO5 (some centres unmarked) [drawing 222] |  |  |  |  |  |  |  |  |  |  |  |  | 1.09e-08 M | 4.48e-09 M | 5.92e-09 M | 5.26e-11 to 1.1e-10 M | 7.53e-12 M |  |  |  | IC50 [31]: 5.15e-10 M; IC50 [32]: 9.9e-10 M |
| COc1c(C)cc2c(c1O)[C@@H]1C3Cc4c(OC(C)=O)c(C)c5c(c4[C@H](CNC(=O)CCc4ccccc4)N3[C@@H](O)[C@H](C2)N1C)OCO5 (some centres unmarked) [drawing 221] |  |  |  |  |  |  |  |  |  |  |  |  | 2.33e-07 M | 1.99e-11 M | 9.38e-09 M |  |  |  |  |  | pIC50 [14]: 13.81; pIC50 [17]: 12.11; IC50 [31]: 3.06e-11 M; IC50 [32]: 6.21e-11 M |
| COc1c(C)cc2c(c1O)[C@@H]1C3Cc4c(OC(C)=O)c(C)c5c(c4[C@H](CNC(=O)/C=C/c4ccccc4)N3[C@@H](O)[C@H](C2)N1C)OCO5 (some centres unmarked) [drawing 213] |  | 2.12e-09 M | 1.72e-09 M | 1.91e-10 M | 4.7e-09 M | 3.71e-10 M | 7.1e-11 M | 3.15e-09 M | 1.29e-10 M | 2.18e-09 M | 1.39e-09 M | 1.09e-09 M |  |  |  |  |  | 8.85e-11 M | 8.74e-09 M | 3.94e-11 M | pIC50 [33]: 13.11; IC50 [27]: 2.38e-09 M; IC50 [30]: 2.22e-09 M; IC50 [26]: 1.39e-06 M |
| CCCCCC(=O)NC[C@H]1c2c(c(OC(C)=O)c(C)c3c2OCO3)CC2[C@H]3c4c(cc(C)c(OC)c4O)C[C@@H]([C@H](O)N21)N3C (some centres unmarked) [drawing 230] |  |  |  |  |  |  |  |  |  |  |  |  | 6.89e-08 M | 1.08e-08 M | 1.5e-08 M | 1.1e-09 M | 3.87e-09 M |  |  |  | IC50 [31]: 1.08e-09 M; IC50 [32]: 1.97e-09 M; IC50 [24]: 3.81e-09 M |
| COc1c(C)cc2c(c1O)[C@@H]1C3Cc4c(OC(C)=O)c(C)c5c(c4[C@H](CNC(=O)[C@H](C)NC(=O)Cc4ccccc4)N3[C@@H](O)[C@H](C2)N1C)OCO5 (some centres unmarked) [drawing 223] |  |  |  |  |  |  |  |  |  |  |  |  | 4.45e-08 M | 1.14e-08 M | 1.23e-10 M | 8.85e-10 M | 8.85e-10 M |  |  |  | IC50 [32]: 1.06e-08 M; IC50 [24]: 1.41e-09 M |
| CCCC(=O)OC[C@H]1c2c(c(OC(C)=O)c(C)c3c2OCO3)CC2[C@H]3c4c(cc(C)c(OC)c4O)C[C@@H]([C@H](O)N21)N3C (some centres unmarked) [drawing 236] | 8.49e-09 M | 1.34e-08 M | 1.13e-08 M | 3.02e-08 M | 6.18e-10 M | 2.47e-08 M | 7.05e-07 M | 6.12e-08 M | 1.28e-08 M | 1.25e-08 M | 2.95e-08 M | 5.01e-08 M |  |  |  |  |  | 2.64e-09 M | 3.55e-08 M | 3.29e-07 M | IC50 [27]: 4.75e-08 M; IC50 [34]: 2.33e-10 M; IC50 [30]: 1.17e-08 M |
| COc1c(C)cc2c(c1O)[C@@H]1C3Cc4c(OC(C)=O)c(C)c5c(c4[C@H](CNC(=O)[C@H](C)NC(=O)C(F)(F)F)N3[C@@H](O)[C@H](C2)N1C)OCO5 (some centres unmarked) [drawing 212] | 7.68e-06 M | 1.97e-08 M | 1.59e-09 M | 3.42e-10 M | 2.15e-09 M | 1.58e-09 M | 2.18e-09 M | 6.01e-11 M | 4.17e-09 M | 3.17e-09 M | 6.77e-09 M | 1.39e-09 M |  |  |  |  |  | 7.36e-10 M | 1.02e-07 M | 2.17e-10 M | IC50 [34]: 9.57e-10 M; IC50 [30]: 1.83e-07 M |
